{"source": "paper PMC7955127", "about": "“Preclinical small molecule WEHI-7326 overcomes drug resistance and elicits response in patient-derived xenograft models of human treatment-refractory tumors” (Cell Death & Disease, 2021)", "key": {"[1]": {"test_system": "SW480", "experiment": "Cell cycle analysis (G2/M arrest, PI staining, flow cytometry), SW480", "type": "cell-based, human", "description": "Fig. 2 Antimitotic activity of WEHI-7326: cancer cell lines and effects on tubulin polymerization. a Dose-dependent antimitotic activity of WEHI-7326, nocodazol and taxol in tumor cell lines SW480 (colorectal) and MDA-MB-231 (breast). Data are presented as percentage of cells in G2/M after overnight incubation with increasing concentrations of inhibitors and PI staining followed by flow cytometry analysis. Mean average of 3 independent experiments ±SEM. b EC50 values (nM) for G2/M arrest on SW480 and MDA-MB-231 cell lines, given as mean average of 3 independent experiments ±SEM. c Western blot analysis of mitotic arrest in SW480 and MDA-MB-231 cells treated with EC50 concentrations of WEHI-7326 or Paclitaxel as marked by expression of phosho-S10 Histone H3 (p-HH3 S10), at different timepoints post treatment. Expression of β-actin provided as loading control. d Cell cycle analysis of LIM1899 cells 72 h post treatment with increasing concentrations of WEHI-7326 as measured by PI staining for DNA content followed by flow cytometry analysis. Sub-G1 represents apoptotic fractions and >4 N cell fractions of mitotic slippage. e Immunofluorescence confocal microscopy of tubulin polymerization in SW480 cells treated by various agents. Cells were incubated for 24 h with control (0.1% DMSO), nocodazole (1 μM), paclitaxel (1 μM), myoseverin B (1 μM) or WEHI-7326 (1 μM). Cells were fixed and stained with β-tubulin antibody (green) and DAPI (DNA; blue) and phalloidin (actin, red). Shown are single confocal sections and enlarged areas (3x) to highlight changes in microtubule network; scale bar = 20 μm. Representative images from 2 independent experiments. f Cellular tubulin polymerization assay in cells: SW480 cells were incubated overnight with paclitaxel, myoseverin B or WEHI-7326, then processed to detect fractions of polymerized (P) and soluble (S) tubulin by western blot analysis. Representative blot of 3 independent experiments. g Tubulin polymerization was assessed in vitro over time using a fluorescence-based tubulin polymerization assay (BK011P). Tubulin was incubated with control (DMSO), paclitaxel (3 μM), nocodazole (15 μM) and WEHI-7326 at indicated concentrations (in DMSO). Polymerization was measured by excitation at 360 nm and emission at 420 nm. Representative graph of 3 independent experiments performed in duplicates. […]\nCells in log growth were supplemented with fresh medium with either vehicle (control) or compound at the stated final concentrations. […] After 1 h incubation at room temperature in the dark, cells were analyzed on a FACScan (Becton and Dickinson) in CellQuest. The percentage of cells in each phase of the cell cycle was determined using ModFit software (Verity, http://www.vsh.com). Early and late apoptotic responses elicited by WEHI-7326 were assessed using Dead Cell Apoptosis Kit (ThermoFisher Scientific) with Annexin V FITC and PI following manufacturer’s instructions. Cells were incubated 24 h with 6-point, 4-fold titration of WEHI-7326, washed twice with cold 1X PBS, resuspended in 1X Annexin Binding Buffer, incubated with FITC Annexin V and PI for 15 mins at RT in the dark and subsequently analyzed by flow cytometry."}, "[2]": {"test_system": "MH792 LUSC PDX", "experiment": "LUSC PDX model MH792", "type": "in vivo, NOD-SCID-IL2Rγc–/– mice", "description": "LUSC PDXs were generated as described in[25]. PDXs at passage 4 were defrosted and washed with PBS before counting. 200,000 to 500,000 cells were then injected in a 50:50 PBS:Matrigel mix into the flanks of NOD-SCID-IL2Rγc–/– male mice. Tumors were measured twice weekly with calipers and treatment started when tumors were between 70–120 mm^3. Mice were assigned to treatment groups based on average tumor volume per group. Mice were culled when tumors reached a volume of 600 mm^3."}, "[3]": {"experiment": "Plasma protein binding", "type": "in vitro ADME", "conditions": "mouse plasma", "text": "a Measured physicochemical and solubility data for WEHI-7326. […] Microsomal-predicted EH values are included."}, "[4]": {"test_system": "porcine tubulin", "experiment": "Tubulin in vitro polymerization assay (fluorescence-based, BK011P)", "type": "biochemical", "conditions": "purified tubulin", "description": "A commercial fluorescence-based tubulin polymerization assay (Cytoskeleton, Denver, CO; Cat. # BK011P) was used as per manufacturer’s instructions for detection of tubulin polymerization inhibitors. Briefly, porcine tubulin (3 mg/ml tubulin in 80 mM PIPES pH 7.0, 0.5 mM EGTA, 2 mM MgCl2, 1 mM GTP and 10% glycerol) was incubated at 37 °C with either vehicle control (DMSO), with Paclitaxel or antimitotic compound. Each condition was tested in duplicate. Polymerization was measured over time by excitation at 360 nm and emission at 420 nm in a temperature controlled 96-well plate fluorimeter (Envision 2105, Perkin-Elmer, Waltham, MS) equipped with filters for excitation at 340–360 nm and emission at 420–450 nm."}}}
{"smiles": "COc1ccc(CNc2nc(NCc3ccc(CN)cc3)nc(NN3CC(=O)NC3=O)n2)cc1", "note": "[WEHI-7326]", "values": [{"measurement": "EC50", "setting": "[1]; Homo sapiens, SW480, read-out: EC50 (G2/M arrest)", "result": "98 ± 10", "unit": "nM"}, {"measurement": "G2/M cell cycle arrest", "setting": "[1]; SW480", "result": "strong G2/M cell cycle arrest"}, {"measurement": "Adverse effects in treatment arm", "setting": "[2]; MH792 PDX mice, 20 mg/kg i.v. twice a week, n = 8–10", "result": "1 with hind limb paralysis after 4 weeks of treatment"}, {"measurement": "Median survival", "setting": "[2]; MH792 PDX, WEHI-7326 20 mg/kg i.v. biweekly, docetaxel 10 mg/kg i.p. once", "result": 34, "unit": "days"}, {"measurement": "Protein binding", "setting": "[3]", "result": 61, "unit": "% bound"}, {"measurement": "Effect on in vitro tubulin polymerization", "setting": "[4]; 50 μM", "result": "markedly slowed tubulin polymerization"}, {"measurement": "Effect on in vitro tubulin polymerization rates", "setting": "[4]; concentrations up to 15 μM, vs vehicle", "result": "did not affect"}]}
